Consider one molecule from patent US6207656A, “Vitamin D analogues and their neuronal effects” (Cephalon, Inc., priority 1998, dated 2001).

A short description of data set [1]: Calcemic activity in rats, serum calcium after 7 days oral gavage. The data set is classed as in vivo, LEW/MOL female rats. The note with it: for Calcium in Serum: Table 2A (vehicle 2.46 ± 0.06), ± S.D. How it is done:
For determining calcemic activity, LEW/MOL female rats (130-170 g) were administered test compounds daily for 7 days by oral gavage. Control rats received the vehicle. Each group consisted of 3 rats. Blood was collected by cardiac puncture on day 7.

Another data set deals with NGF mRNA. Description: Induction of NGF mRNA expression in rats. As to conditions: 8 days (FIG. 1). The data set is classed as in vivo, Sprague Dawley rats. How it is done: Five hours after the last dose, the animals were sacrificed by decapitation. Each brain was quickly removed and chilled in ice-cold saline. The brain was cut into 2 mm thick coronal sections. Portions of the hippocampus, encompassing the CA1 region, and the medial septum were removed by punching 2 mm^3 sections using a calibrated tissue punch. Punched sections were immediately frozen on dry ice and then stored at -70° C. RNA was prepared from dissected tissue pieces.
Punches of tissue were homogenized in […] RNAzolB™ (Bioteex Laboratories, Houston, Tex.) using a homogenizer (Tekmar, Germany) until fully homogenized and then 250 μl RNAzilB™ was added. Typically, punches from the corresponding regions of brains of 2 to 3 animals were combined together. RNA was prepared as recommended by the manufacturer (Biotecx Laboratories). Following isopropanol precipitation, RNA was reprecipitated with ethanol and finally resuspended in 25-50 μL of water. Concentration of RNA was measured spectrophotometrically and the quality of RNA was visualized on a nondenaturing agarose gel. Equal amounts of RNA, usually 1-2 μg, were reverse transcribed using Superscript II™ (Gibco BRL), as recommended by the manufacturer. The assay was terminated by incubation at 95° C. 1 min. at 55-60° C. (depending on the primer set) and 2 min. at 72° C. […] After the assay, samples were electrophoresed on 5% nondenaturing acrylamide gels. Gels were dried and the resulting labeled bands were visualized on a phosphorimager (Storm 840, Molecular Dynamics, Sunnyvale, Calif.). The following primers were used: […]
Nerve Growth Factor (NGF). Primers were designed against the rat sequence.

The test system of a further data set is BDNF mRNA. Description: Induction of BDNF mRNA expression in rats. In kind it is in vivo, Sprague Dawley rats. The note with it: 0.3, 1.0 and 3.0 μg/kg oral, 8 days; hippocampus (FIG. 1). Here is the method:
(§1) Young adult male Sprague Dawley rats (250-350 g) were administered Compound (A), Compound (E), or a vehicle (80% propylene glycol (human formulation grade; Spectrum Quality Products, Inc., Gardena, Calif., catalog #PR130-55003) and 20% phosphate buffer, pH 9.2) at doses ranging from 0.1 to 5.5 μg/kg daily by oral gavage for eight days. Five hours after the last dose, the animals were sacrificed by decapitation. Each brain was quickly removed and chilled in ice-cold saline. The brain was cut into 2 mm thick coronal sections. Portions of the hippocampus, encompassing the CA1 region, and the medial septum were removed by punching 2 mm^3 sections using a calibrated tissue punch. Punched sections were immediately frozen on dry ice and then stored at -70° C. RNA was prepared from dissected tissue pieces.
(§2) Punches of tissue were homogenized in […] RNAzolB™ (Bioteex Laboratories, Houston, Tex.) using a homogenizer (Tekmar, Germany) until fully homogenized and then 250 μl RNAzilB™ was added. Typically, punches from the corresponding regions of brains of 2 to 3 animals were combined together. RNA was prepared as recommended by the manufacturer (Biotecx Laboratories). […] Concentration of RNA was measured spectrophotometrically and the quality of RNA was visualized on a nondenaturing agarose gel. […]

The next data set deals with GDNF mRNA. Description: Induction of GDNF mRNA expression in rats. In kind it is in vivo, Sprague Dawley rats. As to conditions: 0.3, 1.0 and 3.0 μg/kg oral, 8 days; septum and hippocampus (FIG. 1). Here is the method:
as §1, §2

In another data set the test system is NRT-like mRNA. Nature of the data set: Induction of NRT-like mRNA expression in rats. The data set is classed as in vivo, Sprague Dawley rats. As to conditions: 0.3, 1.0 and 3.0 μg/kg oral, 8 days; septum (FIG. 1). How it is done:
as §1, §2

Data set [2] is described as follows: Serum calcium / hypercalcemia in rats (2 weeks dosing, 28-day toxicology). The data set is classed as in vivo, Sprague Dawley rats.
In data set [3] the test system is rats having bilateral lesions of the fimbria-fornix. Nature of the data set: Locomotor activity (hyperactivity) after bilateral fimbria-fornix lesion. In kind it is in vivo, rat. Here is the method:
To determine whether low calcemic doses of vitamin D3 analogs would improve lesion-induced behavioral deficits, Compound (A) (0.1 and 1.0 μg/kg/day) was administered orally once a day (26 days) to rats having bilateral lesions of the fimbria-fornix. Bilateral lesions of the fimbria-fornix cause rats to become hyperactive. To test for hyperactivity, rats were placed in a box marked with squares, where it was observed how many squares the rats entered in a five minute period.

In another data set the test system is NT-3 mRNA. Description: Induction of NT-3 mRNA expression in rats. In kind it is in vivo, Sprague Dawley rats. The note with it: 0.3, 1.0 and 3.0 μg/kg oral, 8 days; hippocampus (FIG. 1). How it is done:
as §1, §2

Data set [4] has as its system ChAT producing cholinergic cells. Description: Fimbria fornix lesion model, cholinergic cell number (ChAT positive septal neurons). The data set is classed as in vivo, rat. How it is done: Fimbria fornix lesioned animals treated orally with Compound (A) (n=10) or vehicle (n=10) were assessed using acetyl cholinesterase staining of both the lesion area and hippocampal formation. Animals received either Compound (A) (1 μg/day) or vehicle via oral gavage (14 days). […] Neurol. 284:187 (1989).
Coronal sections were cut at […] with a cryostat and collected throughout the medial septum. Every fourth section was processed for the visualization of ChAT positive neurons. Approximately 12 sections were assessed per brain. Cholinergic cells were counted and expressed as a ratio of lesioned to unlesioned control side. […] The results, presented in FIG. 9, indicate that lesioned animals treated with Compound (A) have an approximate 30% increase in the number of cholinergic cells as compared to vehicle treated lesioned animals.

For `C=C1/C(=C\C=C2/CCC[C@]3(C)[C@@H]([C@@H](C)[C@@H](C#CCC(O)(CC)CC)OCC)CC[C@@H]23)C[C@@H](O)C[C@@H]1O` [Compound (A), 1(S),3(R)-dihydroxy-20(R)-(1-ethoxy-5-ethyl-5-hydroxy-2-heptyn-1-yl)-9,10-seco-pregna-5(Z),7(E),10(19)-triene], the “Calcium in Serum” value is 2.52 ± 0.02 mmol/L in [1] (0.1 μg/kg/day p.o.) and 2.62 ± 0.02 mmol/L in [1] (1.0 μg/kg/day p.o.). The “Calcium in Serum column: toxicity” value in [1] (10 μg/kg/day p.o., Table 2A) is “toxic”. Also, the “Calcemic Activity (%)” value in data set [1] (rat, in vivo, po) is 24%. The calcemic classification result in data set [1] (summary statement) is on record as “exemplary of low calcemic vitamin D3 analogues”. The “production of NGF mRNA” value in the data set with NGF mRNA (0.3 μg/kg oral) was “did not facilitate the production of NGF mRNA”; in the data set with NGF mRNA (1.0 and 3.0 μg/kg oral), “facilitated the production of NGF mRNA”. The “production of BDNF mRNA” value with BDNF mRNA is “facilitated the production of NRT-like mRNA, GDNF mRNA, NT-3 mRNA, and BDNF mRNA”. The “production of GDNF mRNA” value with GDNF mRNA is listed as “facilitated the production of NRT-like mRNA, GDNF mRNA”. The “production of NRT-like mRNA” value in the data set with NRT-like mRNA is given as “facilitated the production of NRT-like mRNA”. Further, the serum calcium result in data set [2] (1.0 μg/kg, after 2 weeks of dosing) was “did not increase serum calcium”. Besides, in data set [2] (1.0 μg/kg, considered in toto), the “calcemic classification of dose” value was “hypercalcemic dose when considered in toto”. Besides, in [2] (1 μg/kg, female vs male Sprague Dawley rats, data not shown), the “hypercalcemia, 28-day toxicology studies” value is “hypercalcemic to female, but not male, Sprague Dawley rats”. Further, the hypercalcemia entry in data set [2] (3.0 μg/kg) is “hypercalcemic to the animals”. For the same molecule, the “locomotor activity (squares entered per 5 minutes)” value in data set [3] (1.0 μg/kg/day oral, 26 days) is “reduced locomotor activity”. In addition, the “locomotor activity caused by fimbria fornix lesions” value in data set [3] (FIG. 10 legend, oral) was “reduces locomotor activity”. For the same molecule, the “production of NT-3 mRNA” value in the data set on NT-3 mRNA is given as “facilitated the production of NRT-like mRNA, GDNF mRNA, NT-3 mRNA”. Besides, the “increase in number of cholinergic cells vs vehicle treated lesioned animals” value in [4] (1 μg/day oral gavage, 14 days (FIG. 9)) was approximately 30%. The “septal neurons expressing ChAT” value in [4] (FIG. 9, partially fimbria fornix lesioned animals vs vehicle) is given as “increase in septal neurons expressing ChAT”.
